“Also recorded” adds a separate entry of the source. Where two headings read alike, the source gives them in different places. Values belong to the compound of their own block, whether it stands above or below them.
Key:
Format in all cases: cell-based
[1] = test system: guinea pig isolated ventricular myocytes; assay: Action potential studies in guinea pig isolated ventricular myocytes
Excerpt: Isolation of guinea pig ventricular myocytes. Guinea pig ventricular myocytes were isolated as described (Salata J J, Jurkiewicz N K, Wallace A A, Stupienski R F III, Guinosso P J Jr and Lynch J J Jr. (1995). Cardiac electrophysiologic actions of the histamine H1 -receptor antagonists astemizole and terfenadine compared with chlorpheniramine and pyrilamine. Circ Res 76: 110-119.). After isolation, the cells were stored in HEPES-buffered saline (HBS) containing (mM): 132 NaCl, 4 KCl, 1.8 CaCl2, 1.2 MgCl2, 10 HEPES (formal name N-2-Hydoxyethylpiperazine-N-2-ethanesulfonic acid), 10 glucose, pH=7.2, at 24-26° C. until studied, usually within 8 hours after isolation.
Action potential studies. Transmembrane potentials were recorded using conventional microelectrodes filled with 3 M KCl (tip resistances 30-50 M.OMEGA.) using an Axoclamp 2B amplifier (Axon Instruments; Foster City, Calif.) as described (Fermini B, Jurkiewicz N K, Jow B, Guinosso P J Jr, Baskin E P, Lynch J J Jr and Salata J J. (1995). Use-dependent effects of the Class III antiarrhythmic agent NE-10064 (azimilide) on cardiac repolarization: Block of delayed rectifier potassium and L-type calcium currents. J Cardiovasc Pharmacol 26: 259-271.). Cells were superfused with HBS maintained at 37° C. at a rate of 2 ml/min. APs were evoked with brief current pulses (1 ms, 1.2 times threshold) delivered at a frequency of 1 Hz through the recording electrode using an active bridge circuit. Only cells showing normal AP configurations and resting membrane potentials equal to or more negative than -85 mV were used in this study. APs were studied after a ≥5 min control period, and after ≥5 min of superfusion with each concentration of drug. After reaching a steady state effect under each condition, 20 individual APs were sampled and digitally averaged. The amplitude at 50 ms (APA50 ms) and duration at 90% repolarization (APD90) were measured from the digitally averaged records. Concentration-response relationships were determined by measuring APs or currents in each cell under control conditions and during superfusion with successively increasing concentrations of a given drug.
(§1) Solutions. Compounds were dissolved in dimethyl sulfoxide (DMSO) at a stock concentration of 1 or 10 mM and diluted directly into test solutions. Serial dilutions were used to achieve the final test concentrations. DMSO at the concentrations used had no significant effect on any of the parameters measured in these studies. Nisoldipine was prepared as a 4 mM stock solution in DMSO and diluted as needed.
(§2) Statistics. Data are expressed as mean ± SEM (N=number of cells). Concentration-dependent changes in AP parameters and individual ionic currents were assessed by repeated-measures analysis of variance (ANOVA). Post-Hoc comparison of the treatment to the control means were made with Dunnett's t-test to determine significant changes between the control and test group means. Statistical comparisons for the time constants of IKs activation and deactivation were made using a paired t-test. A one-tailed probability (p)<0.05 was considered significant.

[2] = test system: slowly activating cardiac delayed rectifier potassium current (IKs); assay: Whole-cell voltage-clamp of IKs in guinea pig ventricular myocytes; settings: 10 nM Iso alone; 0.5 s pulses
Excerpt: (§3) Isolation of guinea pig ventricular myocytes.
(§4) Voltage-clamp of guinea pig ventricular myocytes. […] Pipettes were made from square bore (1.0 mm, o.d.) borosilicate capillary tubing (Glass Co. of America, Bargaintown, N. J.). […] (average 5.5±0.3 M.OMEGA.). Series resistance was compensated 40-70%. Currents were low-pass filtered (-3 dB at 0.2 kHz) before digitization at 1 kHz. […] Cells were voltage clamped at a holding potential (Vh) of -50 mV to inactivate INa. Time-dependent IKs amplitude was measured as the difference from the initial instantaneous current, following the settling of the capacity transient, to the final current level at the end of a depolarizing pulse. Tail current amplitude, IKtail, was measured as the difference from the holding current level to the peak tail current amplitude upon return to Vh. IKtail was normalized to the maximum measured amplitude (IKtail-max) following 7.5 s pulses. Averaged data was fit to a Boltzmann distribution of the form: IKtail /IKtail-max =1/(1+exp[(V1/2 -Vt)/k]) with a nonlinear least squares fitting routine (Origin, Microcal Software, Northampton, Mass.) to estimate the half-point (V1/2) and slope factor (k) for this relationship. The time courses of IKs activation and deactivation were fit with a double exponential relationship of the form: It =A0 +A1 e^-t/t 1+A2 e^-t/t 2 using a Chebeshev non-iterative fitting technique (pCLAMP, Axon Instruments, Foster City, Calif.).
(§5) Solutions. Compounds were dissolved in dimethyl sulfoxide (DMSO) at a stock concentration of 1 or 10 mM and diluted directly into test solutions. Serial dilutions were used to achieve the final test concentrations. […] Nisoldipine was prepared as a 4 mM stock solution in DMSO and diluted as needed.
as §2

[3] = biological target: T1, slowly activating cardiac delayed rectifier potassium current (IKs) (Cavia porcellus, UniProt O70344); assay: as above; settings: for V1/2 of IKs activation (isochronal, 7.5 s pulses): control 19.2±1.6 mV
T1 construct: Guinea pig ventricular myocytes were isolated as described; endogenous in cells; host or cells: isolated guinea pig ventricular myocytes
Excerpt: as §3, §4, §5, §2

human KvLQT1 channels = biological target: T2, human KvLQT1 channels (Homo sapiens, UniProt P51787); assay: Two-microelectrode voltage clamp of cloned KvLQT1 channels expressed in Xenopus oocytes; settings: 1 μM
T2 construct: homotetramer
T2 sequence (P51787 whole entry): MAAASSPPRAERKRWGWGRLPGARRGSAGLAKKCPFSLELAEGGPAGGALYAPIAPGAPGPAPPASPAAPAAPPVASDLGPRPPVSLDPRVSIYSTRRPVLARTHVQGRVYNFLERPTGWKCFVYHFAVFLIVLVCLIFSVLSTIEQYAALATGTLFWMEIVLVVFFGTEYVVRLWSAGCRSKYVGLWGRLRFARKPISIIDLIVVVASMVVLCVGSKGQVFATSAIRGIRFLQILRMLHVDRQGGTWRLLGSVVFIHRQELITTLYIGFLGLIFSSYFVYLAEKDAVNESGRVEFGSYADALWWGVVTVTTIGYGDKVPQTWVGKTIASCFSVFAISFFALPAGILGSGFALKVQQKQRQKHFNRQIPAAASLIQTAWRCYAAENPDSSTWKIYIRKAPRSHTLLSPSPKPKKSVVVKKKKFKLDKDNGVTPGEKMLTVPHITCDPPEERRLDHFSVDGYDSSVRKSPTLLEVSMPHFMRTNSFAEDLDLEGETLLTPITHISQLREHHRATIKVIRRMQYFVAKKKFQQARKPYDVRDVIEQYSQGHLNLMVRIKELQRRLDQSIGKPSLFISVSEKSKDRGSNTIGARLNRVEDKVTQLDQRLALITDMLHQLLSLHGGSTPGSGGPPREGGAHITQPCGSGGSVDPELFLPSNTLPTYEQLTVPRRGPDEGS
Procedure: cRNA injection and voltage-clamp of oocytes. The isolation and maintenance of Xenopus oocytes, in vitro transcription of KvLQT1 complementary RNA (cRNA) and its injection into oocytes were performed as described previously (Sanguinetti M C, Curran M E, Zou A, Shen J, Spector P S, Atkinson D L and Keating M T. (1996b). Coassembly of KvLQT1 and minK (IsK) proteins form cardiac IKs potassium channel. Nature 384: 80-83.; Sanguinetti M C, Jiang C, Curran M E and Keating M T. (1995). A mechanistic link between an inherited and an acquired cardiac arrhythmia: HERG encodes the IKr potassium channel. Cell 81: 299-307.). Stage V and VI oocytes were injected with 11.5 ng of KvLQT1 cRNA (46 nL of a 250 ng/μL solution) Currents were recorded 2 to 4 days later using standard two-microelectrode voltage clamp techniques and a Dagan TEV-200 amplifier. Oocytes were bathed at room temperature (22-25° C.) in a solution containing (mM): 94 NaCl, 2 KCl, 2 MgCl2, 0.1 CaCl2, 5 HEPES; pH 7.6.
as §1

[4] = 10 μM, read-out: Agonist Effect - % Increase in IKs, Vt +50 mV
[5] = 1 μM, read-out: Agonist Effect - % Increase in IKs, Vt +50 mV
[6] = 10 μM, read-out: Agonist Effect - % Increase in IKs, Vt -10 mV

SMILES: CC(C)NCC(O)c1ccc(O)c(O)c1 (stereo not drawn) [Iso, isoproterenol, reference compound]
- decrease in APD90 ([1]; 30 nM Iso alone): 12.9±2.9%
- activation at 0.03 µM ([1]; Cavia porcellus, Ventricular myocyte, 30 nM Iso alone, read-out: increase in APA50ms): 6.6 ± 2.9%
- increase in IKs [2]: 1.75 fold

SMILES: Cc1cccc(N2C(=O)NC3(N=C(c4ccccc4)c4ccccc4N(C)C3=O)C2=O)c1 (stereo not drawn) [L6, 1-methyl-5-phenyl-1'-(3-tolyl)-spiro[3H-1,4-benzodiazepine-3,4'-imidazolidine]-2(1H),2',5'-trione]
- activation at 10 µM [3, 4]: 31 ± 9%

- Agonist Effect - % Increase in IKs, Vt -10 mV ([3]; 1 μM): no change
- activation at 1 µM [3, 5]: 111 ± 28%
SMILES: O=C1CC2(CCN(C(=O)Nc3ccccc3)CC2)Oc2ccccc21 [L7, N-phenyl-1'-(carboxamido)-spiro[2H-1-benzopyran-2,4'-piperidin]-4(3H)-one]

- Agonist Effect - % Increase in IKs, Vt -10 mV ([3]; 10 μM): no change
- activation at 10 µM [3, 4]: 65 ± 17%
SMILES: Cc1cccc(NC(=O)N2CCC3(CC2)CC(=O)c2ccccc2O3)c1 [L8, N-(3-tolyl)-1'-(carboxamido)-spiro[2H-1-benzopyran-2,4'-piperidin]-4(3H)-one]

SMILES: CN1C(=O)[C@@H](Cc2c[nH]c3ccccc23)N=C(c2ccccc2F)c2ccccc21 [R-L3, (3-R)-1,3-dihydro-5-(2-fluorophenyl)-3-(1H-indol-3-ylmethyl)-1-methyl-2H-1,4-benzodiazepin-2-one]
- decrease in APD90 ([1]; 1 μM R-L3 in the continued presence of 100 nM timolol): 14.6±2.2%
- decrease in APD90 ([1]; 1 μM R-L3 in the presence of 30 nM Iso): 26.9±1.4%
- decrease in APD90 ([1]; 1 μM, stimulation at 1 Hz): 14.2±1.6%
- decrease in APD90 ([1]; 10 μM, stimulation at 1 Hz): 13.8±4.0%
- effect on APD ([1]; 0.1-1.0 μM, 1 Hz): concentration-dependent shortening of APD
- concentration at which shortening of APD was maximal ([1]; 1 Hz): 1 µM
- fold induction at 0.03 µM ([3]; 30 nM, 3 s depolarizations to Vt -10 mV from Vh -50 mV, read-out: IKs increased by a factor): 17 ± 5
- V1/2 of IKs activation (isochronal, 7.5 s pulses) ([3]; 0.1 μM): 3.0±0.8 mV
- activation at 0.1 µM ([3]; 0.1 μM, read-out: Agonist Effect - % Increase in IKs, Vt +50 mV): 25 ± 6%
- activation at 0.1 µM ([3]; 0.1 μM, read-out: Agonist Effect - % Increase in IKs, Vt -10 mV): 431 ± 123%
- fast time constants of IKs activation ([3]; 1 μM): slightly, but not significantly, faster
- maximally activated IKs ([3]; 1 μM, Vt +60 mV, control 896±196 pA, not significantly increased): 953±183 pA
- V1/2 of IKs activation (isochronal, 7.5 s pulses) ([3]; 1 μM): -4.9±3.4 mV
- shift of V1/2 of IKs activation ([3]; 1 μM, following pretreatment with 100 nM timolol): -19 mV
- activation at 1 µM [3, 5]: 40 ± 12%
- effect on time-dependent IKs at the end of 7.5 s pulses ([3]; 10 μM, Vh -50 mV): increased time-dependent IKs at the end of 7.5 s pulses to potentials <+10 mV, but decreased IKs at more positive potentials
- effect on slope factor k of IKs activation ([3]; 0.1 and 1 μM, control k 11.0±1.2 mV): not significantly changed; also recorded: had no effect on k
- fast and slow time constants of IKs deactivation ([3]; -60 to -10 mV following 3 s pre-pulse to +30 mV): significantly increased
- lowest concentration enhancing IKs ([3]; Vt -10 mV): 30 nM
- concentration of maximal effect on IKs ([3]; Vt -10 mV, 3 s pulses): 1 µM
- net effect on rate of KvLQT1 activation (human KvLQT1 channels): slow the rate of KvLQT1 activation
- shift in the voltage dependence of KvLQT1 activation (human KvLQT1 channels): -10 mV
- effect on KvLQT1 current (human KvLQT1 channels; 2 s pulses to -70 to +60 mV): increased KvLQT1
- slope factor (k) of KvLQT1 activation (human KvLQT1 channels; control 11 mV): 13 mV
- V1/2 of KvLQT1 activation (human KvLQT1 channels; control -28 mV): -40 mV
- effect on rate of KvLQT1 deactivation (human KvLQT1 channels; voltages negative to -40 mV): slowed the rate of KvLQT1 deactivation

SMILES: O=C1Nc2ccccc2C(c2ccccc2F)=N[C@@H]1Cc1c[nH]c2ccccc12 [R-L4, (3-R)-1,3-dihydro-5-(2-fluorophenyl)-3-(1H-indol-3-ylmethyl)-2H-1,4-benzodiazepin-2-one]
- activation at 1 µM [3, 5]: 44 ± 9%
- activation at 1 µM ([3]; 1 μM, read-out: Agonist Effect - % Increase in IKs, Vt -10 mV): 27 ± 7%
- activation at 10 µM [3, 4]: 114 ± 13%
- activation at 10 µM [3, 6]: 153 ± 37%

SMILES: O=C1Nc2ccc(Cl)cc2C(c2ccccc2)=N[C@@H]1Cc1c[nH]c2ccccc12 [R-L5, (3-R)-7-chloro-1,3-dihydro-5-phenyl-3-(1H-indol-3-ylmethyl)-2H-1,4-benzodiazepin-2-one]
- activation at 10 µM [3, 4]: 22 ± 6%
- activation at 10 µM [3, 6]: 22 ± 10%

SMILES: CN1C(=O)[C@H](Cc2c[nH]c3ccccc23)N=C(c2ccccc2F)c2ccccc21 [S-L3]
- inhibition at 1 µM ([3]; 1 μM, end of a 1-s test pulse to +50 mV, read-out: block of IKs): 14.8 ± 4.3%
- inhibition at 10 µM ([3]; 10 μM, end of a 1-s test pulse to +50 mV, read-out: block of IKs): 68.8 ± 3.4%
- effect on IKs ([3]; 1 to 10 μM, test potentials -10 to +50 mV): blocked IKs at all concentrations

SMILES: CC(C)(C)NC[C@H](O)COc1nsnc1N1CCOCC1 [timolol, reference compound]
- effect on AP configuration ([1]; 100 nM timolol): did not alter AP configuration
- effect on the effects of 30 nM Iso on the action potential ([1]; 100 nM timolol): prevented the effects of 30 nM Iso
